From EP2168591A1, “Antimicrobial peptides” (Helmholtz Zentrum München Deutsches Forschungszentrum für …, priority 2008, dated 2010)
Read-outs that look alike come from different tables or passages of the source. Non-standard residues stand in square brackets, D forms with d. Residues, ends and D or L forms follow the SMILES beside them. No end group written: not given here.

Key:
[1] = test system: Pseudomonas syringae pv. syringae
Method: (§1) In-vitro inhibition assays were performed in sterile flat-bottom 96-well plates (Greiner bio-one, Frickenhausen). Antimicrobial peptides were dissolved in 0.01% acetic acid containing 0.2% BSA (500 µg/ml), filter sterilized and stored at -20°C. For inhibition assays dilutions of peptides ranging from 5 to 200 µg/ml were prepared and 10 µl (antibacterial assay) or 20 µl (antifungal assay) of each concentration was loaded per well.
(§2) Bacteria colonies from overnight agar plate cultures were resuspended into 5ml LB-medium or HPG-medium (OD600nm=0.08-0.1) and diluted into LB-medium/HPG-medium (1:100). 90 µl of this suspension containing about 10^5-10^6 CFU/ml of tested bacteria were added to each well resulting in final peptide concentrations of 0, 0.5, 1, 2, 5, 10, and 20 µg/ml.
(§3) The lowest peptide concentration leading to complete inhibition of bacterial growth or spore germination/mycelial growth (minimal inhibition concentration, MIC) was determined for each organism-peptide combination. For each peptide concentration two identical inhibition assays were performed. […] Table 1: Minimal inhibition concentration (MIC) for complete inhibition of bacterial growth or spore germination/mycelial growth.

[2] = test system: Clavibacter michiganensis sub. michiganensis; conditions: complete inhibition of bacterial growth, overnight at 25 °C
Method: as §1, §2, §3

[3] = test system: Pectobacterium carotovorum sub. carotovorum
Method: as §1, §2, §3

[4] = test system: Pseudomonas corrugata
Method: as §1, §2, §3

[5] = test system: Pseudomonas syringae pv. tomato
Method: as §1, §2, §3

[6] = test system: Xanthomonas vesicatoria
Method: as §1, §2, §3

[7] = test system: Botrytis cinerea; type: cell-based; conditions: complete inhibition of spore germination/mycelial growth, visual screening
Method: (§4) In-vitro inhibition assays were performed in sterile flat-bottom 96-well plates (Greiner bio-one, Frickenhausen). […] Spores of fungi were collected by water washes of sporulating cultures grown on 2% malt extract agar and spore concentration was determined by microscopy. The concentration of the spores was adjusted to 1.5-2 x 10^3 spores/ml in 2% malt extract medium and 80 µl of fungal spores were added per well. […] After overnight incubation at room temperature the plate were put on a rotary shaker (300 rpm) for further two days to ensure consistantly growth. Antifungal effects of the peptides were determined by a microplate reader (Alternaria, Fusarium) at OD590nm or by visual screening of the plates (Botrytis, Cladosporium). The lowest peptide concentration leading to complete inhibition of bacterial growth or spore germination/mycelial growth (minimal inhibition concentration, MIC) was determined for each organism-peptide combination. For each peptide concentration two identical inhibition assays were performed. Table 1: Minimal inhibition concentration (MIC) for complete inhibition of bacterial growth or spore germination/mycelial growth.

[8] = test system: Cladosporium herbarum; type: cell-based; conditions: complete inhibition of spore germination/mycelial growth, visual screening
Method: as §4

[9] = test system: Alternaria alternata; type: cell-based; conditions: complete inhibition of spore germination/mycelial growth, OD590nm
Method: as §4

[10] = complete inhibition of bacterial growth, Pseudomonas syringae pv. syringae, overnight at 25 °C
[11] = complete inhibition of bacterial growth, Pectobacterium carotovorum sub. carotovorum, overnight at 25 °C
[12] = complete inhibition of bacterial growth, Pseudomonas corrugata, overnight at 25 °C
[13] = complete inhibition of bacterial growth, Pseudomonas syringae pv. tomato, overnight at 25 °C
[14] = complete inhibition of bacterial growth, Xanthomonas vesicatoria, overnight at 25 °C

LLIRAAKKFIKK-NH2 [SP8]
Minimal inhibition concentration (MIC) [1, 10]: > 40 µg/mL
Minimal inhibition concentration (MIC) [2]: > 40 µg/mL
Minimal inhibition concentration (MIC) [3, 11]: > 40 µg/mL
Minimal inhibition concentration (MIC) [4, 12]: > 40 µg/mL
Minimal inhibition concentration (MIC) [5, 13]: > 40 µg/mL
Minimal inhibition concentration (MIC) [6, 14]: > 40 µg/mL
Minimal inhibition concentration (MIC) [7]: > 100 µg/mL
Minimal inhibition concentration (MIC) [8]: 40 µg/mL
Minimal inhibition concentration (MIC) [9]: > 100 µg/mL

CC[C@@H](C)[C@@H](NC(=O)[C@H](Cc1ccccc1)NC(=O)[C@H](CCCNC(=N)N)NC(=O)[C@H](CCCCN)NC(=O)[C@H](CC(C)C)NC(=O)[C@H](Cc1ccccc1)NC(=O)[C@H](CCCCN)NC(=O)[C@H](NC(=O)[C@H](CC(C)C)NC(=O)[C@@H](N)CC(C)C)[C@H](C)CC)C(=O)N[C@@H](CCCCN)C(=O)N[C@@H](Cc1c[nH]cn1)C(N)=O [SP7-D, LL/KFLKRF/KH] (H-LL[dI]KFLKRF[dI]KH-NH2; N-terminus assumed)
Minimal inhibition concentration (MIC) [1]: 2,5 µg/ml
Minimal inhibition concentration (MIC) [3]: 40 µg/mL
Minimal inhibition concentration (MIC) [4]: 5 µg/mL
Minimal inhibition concentration (MIC) [5]: 2,5 µg/ml
Minimal inhibition concentration (MIC) [6]: 10 µg/mL

LLIKFLKRFIKH-NH2 [SP7]
Minimal inhibition concentration (MIC) [1, 10]: 10 µg/mL
Minimal inhibition concentration (MIC) [2]: 5 µg/mL
Minimal inhibition concentration (MIC) [3, 11]: > 40 µg/mL
Minimal inhibition concentration (MIC) [4, 12]: 10 µg/mL
Minimal inhibition concentration (MIC) [5, 13]: 5 µg/mL
Minimal inhibition concentration (MIC) [6, 14]: 5 µg/mL
Minimal inhibition concentration (MIC) [7]: > 100 µg/mL
Minimal inhibition concentration (MIC) [8]: 20 µg/mL
Minimal inhibition concentration (MIC) [9]: > 100 µg/mL

ALAHFLKKAIKK-NH2 [SP6]
Minimal inhibition concentration (MIC) [1, 10]: 5 µg/mL
Minimal inhibition concentration (MIC) [2]: > 40 µg/mL
Minimal inhibition concentration (MIC) [3, 11]: > 40 µg/mL
Minimal inhibition concentration (MIC) [4, 12]: 20 µg/mL
Minimal inhibition concentration (MIC) [5, 13]: 10 µg/mL
Minimal inhibition concentration (MIC) [6, 14]: 40 µg/mL
Minimal inhibition concentration (MIC) [7]: > 100 µg/mL
Minimal inhibition concentration (MIC) [8]: 100 µg/mL
Minimal inhibition concentration (MIC) [9]: > 100 µg/mL

LLIAAFKKLVKK-NH2 [SP5]
Minimal inhibition concentration (MIC) [1, 10]: 40 µg/mL
Minimal inhibition concentration (MIC) [2]: 20 µg/mL
Minimal inhibition concentration (MIC) [3, 11]: > 40 µg/mL
Minimal inhibition concentration (MIC) [4, 12]: > 40 µg/mL
Minimal inhibition concentration (MIC) [5, 13]: > 40 µg/mL
Minimal inhibition concentration (MIC) [6, 14]: 40 µg/mL
Minimal inhibition concentration (MIC) [7]: > 100 µg/mL
Minimal inhibition concentration (MIC) [8]: 100 µg/mL
Minimal inhibition concentration (MIC) [9]: > 100 µg/mL
